# Test results from publication PMC12692291, “Development and In Vitro Evaluation of [^64Cu]Cu-NOTA-TP-PSMA, a Novel Radiotheranostic Agent Against Prostate Cancer” (International Journal of Molecular Sciences, 2025).
# Like-named read-outs stand apart in the source and are kept apart here.
# Assays:
# LNCaP cells [1] = assay: Efflux (retention) study in LNCaP cells; format: cell-based; conditions: Table S3 first part (LNCaP)
# Method: (§1) Efflux studies were conducted by incubating the cells with the compound for an initial period of 1 h, after which the incubation medium was replaced with fresh, compound-free medium. The retained intracellular radioactivity was then measured at various time points up to 24 h and expressed as the percentage of retention relative to the 0-h time point, defined as the time immediately after medium replacement.
# HEK-293 cells [2] = assay: Efflux (retention) study in HEK-293 cells; format: cell-based, human; conditions: Table S3 second part (HEK-293)
# Method: as §1
# HEK-293 cells [3] = assay: Nuclear localization in HEK-293 cells; format: cell-based, human
# Method: (§2) To assess nuclear localization, LNCaP and HEK-293 cells were incubated with 1 MBq of [^64Cu]Cu-NOTA-TP-PSMA 1 for 24, 48, and 72 h. Nuclear extraction was performed following a previously established protocol. Following incubation, cells were lysed and fractionated using cytoskeletal buffer to isolate nuclear components. Nuclear and cytoplasmic radioactivity were measured using a HIDEX automatic gamma counter. Data were used to evaluate time-dependent nuclear accumulation of the tracer.
# LNCaP cells [4] = format: cell-based
# Method: (§3) The cytotoxicity of compounds 1–3, ^natCu-NOTA-TP-PSMA, and cisplatin (platinum-based drug) were assessed with PrestoBlue, a resazurin-based method to assess mitochondrial function in LNCaP and HEK-293 cells at 24, 48, and 72 h. Effective concentration (EC50) values summarized in Table 3 were calculated from the dose–response curves of each compound (Figure S7).
# (§4) Cytotoxicity was evaluated using a resazurin-based assay (PrestoBlue) in 96-well plates. LNCaP (15,000 cells/well) and HEK-293 (10,000 cells/well) were seeded and incubated for 72 h. Cells were then treated with serial dilutions of [^64Cu]Cu-NOTA-TP-PSMA and controls for 24, 48, or 72 h. After treatment, cells were rinsed with PBS and incubated with PrestoBlue reagent for 40 min. Fluorescence was measured at 570 nm (excitation) and 610 nm (emission). Background readings from blank wells were subtracted. Cell viability was calculated relative to untreated controls. IC50 values were determined using dose–response curves. Controls included [^64Cu]Cu-NOTA-TP, [^64Cu]Cu-NOTA-PSMA, ^natCu-NOTA-TP-PSMA, and cisplatin (0–500 µM in 0.9% saline). All assays were performed in triplicate and all data presented in Results are the average of three independent experiments. TP conjugates were dissolved in 1% DMSO and diluted in saline. Inhibitory concentration 50 (IC50) values were calculated to quantify the effectiveness of the compounds.
# LNCaP cells [5] = assay: Cellular uptake and internalization in LNCaP cells; format: cell-based; conditions: LNCaP, 24 h, 37 °C, 1 nM
# Method: LNCaP cells (1 × 10^5 cells/well) were seeded into 24-well plates and incubated for 72 h. Cells were treated with 1nM [^64Cu]Cu-NOTA-TP-PSMA or control monomers ([^64Cu]Cu-NOTA-TP and [^64Cu]Cu-NOTA-PSMA), each containing 0.1 MBq of radioactivity in RPMI-1640 medium.
# Uptake and internalization were assessed at multiple time points (30 min to 24 h). At each timepoint, cells were washed with cold PBS, detached with trypsin, and counted using a hemocytometer. For internalization studies, surface-bound radioactivity was removed using 50 mM glycine-HCl buffer (pH 2.2) for 5 min, followed by additional PBS washes.
# To investigate the internalization mechanism, parallel experiments were conducted at 4 °C to evaluate passive versus active uptake. Receptor specificity was assessed via blocking assays using 1 µM ^natCu-NOTA-TP-PSMA (1000-fold excess) co-incubated with 1 nM radiolabeled tracer. Post-incubation, intracellular radioactivity was quantified using a HIDEX gamma counter. All results were normalized to 10^6 cells and expressed as percent counts per minute per million cells (%CPM/10^6 cells).
# LNCaP cells [6] = assay: Nuclear localization in LNCaP cells; format: cell-based
# Method: as §2
# HEK-293 cells [7] = assay: PrestoBlue cytotoxicity assay in HEK-293 cells; format: cell-based, human; conditions: read-out: EC50 HEK293
# Method: as §3, §4
# [8] = Solubility in aqueous media; format: physicochemical
compound,measurement,setting,value
"O=C(O)CC[C@H](NC(=O)N[C@@H](CCCCNC(=O)[C@@H](Cc1ccc2ccccc2c1)NC(=O)[C@H]1CC[C@H](CNC(=O)CNC(=O)COCCOCCNC(=O)CN2CCN(CC(=O)O)CCN(CC(=O)O)CC2)CC1)C(=O)O)C(=O)O [[^64Cu]Cu-NOTA-PSMA 3, metal not drawn]",Retained activity,LNCaP cells [1]; 0 h after medium replacement,100 ± 0 %CPM/106 cells
same,Retained activity,LNCaP cells [1]; 1 h,54.8 ± 10.0 %CPM/106 cells
same,Retained activity,LNCaP cells [1]; 2 h,49.6 ± 8.1 %CPM/106 cells
same,Retained activity,LNCaP cells [1]; 4 h,46.6 ± 8.1 %CPM/106 cells
same,Retained activity,LNCaP cells [1]; 24 h,39.2 ± 7.9 %CPM/106 cells
same,Retained activity,HEK-293 cells [2]; 0 h after medium replacement,100 ± 0 %CPM/106 cells
same,Retained activity,HEK-293 cells [2]; 1 h,59.4 ± 22.3 %CPM/106 cells
same,Retained activity,HEK-293 cells [2]; 2 h,45.1 ± 14.5 %CPM/106 cells
same,Retained activity,HEK-293 cells [2]; 4 h,38.4 ± 4.1 %CPM/106 cells
same,Retained activity,HEK-293 cells [2]; 24 h,22.0 ± 1.5 %CPM/106 cells
same,nuclear uptake in HEK-293 cells,HEK-293 cells [3]; 48 h,0.13 ± 0.05%
same,nuclear uptake in HEK-293 cells,HEK-293 cells [3]; 72 h,0.23 ± 0.04%
same,Nuclear uptake HEK-293,"HEK-293 cells [3]; Table S4, 24 h",0.07 ± 0.05 %ID/10⁶ cells
same,Nuclear uptake HEK-293,"HEK-293 cells [3]; Table S4, 48 h",0.13 ± 0.05 %ID/10⁶ cells
same,Nuclear uptake HEK-293,"HEK-293 cells [3]; Table S4, 72 h",0.23 ± 0.04 %ID/10⁶ cells
same,fold less cytotoxic than compound 1,LNCaP cells [4],5–16 fold
same,Internalization,LNCaP cells [5],16.7 ± 1.6 %CPM/10^6 cells
same,Uptake,LNCaP cells [5],22.8 ± 1.2 %CPM/10^6 cells
same,nuclear uptake fold difference LNCaP vs HEK-293,LNCaP cells [6]; 24 h,5.8 fold
same,nuclear uptake in LNCaP cells,LNCaP cells [6]; 48 h,0.30 ± 0.13%
same,nuclear uptake fold difference LNCaP vs HEK-293,LNCaP cells [6]; 72 h,1.5 fold
same,nuclear uptake in LNCaP cells,LNCaP cells [6]; 72 h,0.35 ± 0.07%
same,Nuclear uptake LNCaP,"LNCaP cells [6]; Table S4, 24 h",0.44 ± 0.25 %ID/10⁶ cells
same,Nuclear uptake LNCaP,"LNCaP cells [6]; Table S4, 48 h",0.77 ± 1.02 %ID/10⁶ cells
same,Nuclear uptake LNCaP,"LNCaP cells [6]; Table S4, 72 h",0.35 ± 0.07 %ID/10⁶ cells
"N.N.[Cl][Pt][Cl] [Cisplatin, cisplatin, reference compound]",EC50,HEK-293 cells [7]; 24 h,31.3 µM
same,EC50,HEK-293 cells [7]; 48 h,41 µM
same,EC50,HEK-293 cells [7]; 72 h,27.5 µM
same,EC50,LNCaP cells [4]; 24 h,81 µM
same,EC50,LNCaP cells [4]; 48 h,30.4 µM
same,EC50,LNCaP cells [4]; 72 h,22.9 µM
"O=C(O)CC[C@H](NC(=O)N[C@@H](CCCCNC(=O)[C@@H](Cc1ccc2ccccc2c1)NC(=O)[C@H]1CC[C@H](CNC(=O)CNC(=O)COCCOCCNC(=O)CN2CCN(CC(=O)O)CCN(CC(=O)O)CC2)CC1)C(=O)O)C(=O)O [^natCu-NOTA-PSMA, metal not drawn]",solubility,[8],readily soluble in aqueous media
O=C(O)CC[C@H](NC(=O)N[C@@H](CCCCNC(=O)[C@@H](Cc1ccc2ccccc2c1)NC(=O)C1CCC(CNC(=O)C(CCCCNC(=O)c2cc3[n+]4c(c2)-c2cccc[n+]2[Pt-2]4([Cl])[n+]2ccccc2-3)NC(=O)COCCOCCNC(=O)CN2CCN3CCN(CC2)CC(=O)[O][Cu][O]C(=O)C3)CC1)C(=O)O)C(=O)O (stereo partly drawn) [^natCu-NOTA-TP-PSMA],solubility,[8],reduced solubility
